Measurements published in patent publication US20260258086A1 (priority 2021, published 2026).
Where two headings read alike, the source gives them in different places. Numbered stars: 1 amine (or outer) side, 2 acyl side, 3 side chain; on linkers, the order of the positions; unused ones are H or OH. Bridge positions count the residues as written; N and C are the ends. Square brackets hold non-standard residues; d marks the D form. Peptide text beside a SMILES is read from it. X4 = O=C([C@@H](Cc1c([*:3])[nH]c2ccc(O)cc12)N[*:1])[*:2]; X2 = O=C([C@@H](Cc1c([*:3])[nH]c2ccccc12)N[*:1])[*:2]; Ile(4R-OH,5-OH) = C[C@H]([C@H](N)C(=O)O)[C@@H](O)CO; X5 = C[C@@H](S[*:3])[C@H](N[*:1])C(=O)[*:2]; X1 = C[C@H](S[*:3])[C@H](N[*:1])C(=O)[*:2]; X3 = CS[C@H](C)[C@H](N[*:1])C(=O)[*:2]; Gly(cPent) = N[C@H](C(=O)O)C1CCCC1; Nva(3-Et) = CCC(CC)[C@H](N)C(=O)O; Hyp = O=C(O)[C@@H]1C[C@@H](O)CN1; Pen = CC(C)(S)[C@H](N)C(=O)O

Experiments:
[1] = tested on: HEK293 cells
[2] = tested on: CHO cells
[3] = target: Pol II (Homo sapiens, UniProt P24928); assay: biochemical; format: biochemical
[4] = tested on: HeLa cells
[5] = tested on: HepG2 cells
[6] = tested on: white mice; settings: mouse, in vivo; cited from earlier work
[7] = target: calf thymus RNAP II (Bos taurus, UniProt G3MZY8); settings: cited from earlier work
[8] = tested on: SK-BR-3 cells; format: cell-based; settings: read-out: IC50, cell viability on SK-BR-3 cells

Row | Compound | IC50 [1] [nM] | IC50 [2] [nM] | LD50 [6] [mg/kg] | other results
1 | CC[C@H](C)[C@@H]1NC(=O)CNC(=O)[C@H]2Cc3c([nH]c4ccccc34)S[C@@H](C)[C@H](NC(=O)CNC1=O)C(=O)N[C@@H](CC(N)=O)C(=O)N1C[C@H](O)C[C@H]1C(=O)N[C@@H]([C@@H](C)[C@@H](O)CO)C(=O)N2 [Compound I(i), (2R,3S)-β-Methyl-Cys^8-Dideoxyamanitin] (cyclo(GIG[X1]N[Hyp][Ile(4R-OH,5-OH)][X2]); thioether 4-8) | 240 ± 50 | 610 ± 170 |  | 
2 | CC[C@H](C)[C@@H]1NC(=O)CNC(=O)[C@H]2Cc3c([nH]c4ccccc34)S[C@H](C)[C@H](NC(=O)CNC1=O)C(=O)N[C@@H](CC(N)=O)C(=O)N1C[C@H](O)C[C@H]1C(=O)N[C@@H]([C@@H](C)[C@@H](O)CO)C(=O)N2 [Compound I(ii), (2R,3R)-β-Methyl-Cys^8-Dideoxyamanitin] (cyclo(GIG[X5]N[Hyp][Ile(4R-OH,5-OH)][X2]); thioether 4-8) |  | > 15000 |  | Ki [3]: > 1000 nM
3 | CC[C@H](C)[C@@H]1NC(=O)CNC(=O)[C@H]2Cc3c([nH]c4ccccc34)SC(C)(C)[C@H](NC(=O)CNC1=O)C(=O)N[C@@H](CC(N)=O)C(=O)N1C[C@H](O)C[C@H]1C(=O)N[C@@H]([C@@H](C)[C@@H](O)CO)C(=O)N2 [Compound I(iii), Pen^8-Dideoxyamanitin] (cyclo(GIG[Pen]N[Hyp][Ile(4R-OH,5-OH)][X2]); thioether 4-8) |  | 2700 ± 590 |  | cytotoxicity compared with α-amanitin, in words [2]: intermediately toxic
4 | CC[C@H](C)[C@@H]1NC(=O)CNC(=O)[C@H]2Cc3c([nH]c4ccccc34)SC[C@H](NC(=O)CNC1=O)C(=O)N[C@@H](CC(N)=O)C(=O)N1C[C@H](O)C[C@H]1C(=O)N[C@@H]([C@@H](C)[C@@H](O)CO)C(=O)N2 [Compound I(iv), aza-Gly^7-Dideoxyamanitin] (cyclo(CN[Hyp][Ile(4R-OH,5-OH)][X2]GIG); thioether 1-5) | 260 ± 70 | 170 ± 30 |  | cytotoxicity, in words [1]: increased cytotoxicity; IC50 [4]: 3300 ± 390 nM; cytotoxicity, in words [4]: increased cytotoxicity; IC50 [5]: 5600 ± 780 nM
5 | CC[C@H](C)[C@@H]1NC(=O)CNC(=O)[C@H]2Cc3c([nH]c4ccccc34)SC[C@H](NC(=O)CNC1=O)C(=O)N[C@@H](CC(N)=O)C(=O)N1C[C@H](O)C[C@H]1C(=O)N[C@@H]([C@@H](C)[C@@H](O)CO)C(=O)N2 [Compound I(ix), aza-Gly^5-Dideoxyamanitin] (cyclo(CN[Hyp][Ile(4R-OH,5-OH)][X2]GIG); thioether 1-5) | 210 ± 50 | 1900 ± 520 |  | cytotoxicity compared with α-amanitin, in words [2]: only a two-fold reduction in cytotoxicity
6 | CS[C@H](C)[C@@H]1NC(=O)CNC(=O)[C@H]2Cc3c([nH]c4ccccc34)SC[C@H](NC(=O)CNC1=O)C(=O)N[C@@H](CC(N)=O)C(=O)N1C[C@H](O)C[C@H]1C(=O)N[C@@H]([C@@H](C)[C@@H](O)CO)C(=O)N2 [Compound I(v), Thia-Ile^6-Dideoxyamanitin] (cyclo(CN[Hyp][Ile(4R-OH,5-OH)][X2]G[X3]G); thioether 1-5) | 830 ± 150 | 4400 ± 730 |  | Pol II / transcription inhibition, in words [3]: high Pol II inhibition; IC50 [4]: 16000 ± 2300 nM; IC50 [5]: > 20000 nM
7 | CO[C@H](C)[C@@H]1NC(=O)CNC(=O)[C@H]2Cc3c([nH]c4ccccc34)SC[C@H](NC(=O)CNC1=O)C(=O)N[C@@H](CC(N)=O)C(=O)N1C[C@H](O)C[C@H]1C(=O)N[C@@H]([C@@H](C)[C@@H](O)CO)C(=O)N2 [Compound I(vi), Oxo-Ile^6-Dideoxyamanitin] (cyclo(CN[Hyp][Ile(4R-OH,5-OH)][X2]GT(Me)G); thioether 1-5) |  | > 15000 |  | cytotoxicity compared with α-amanitin, in words [2]: no observable cytotoxicity
8 | CCC(CC)[C@@H]1NC(=O)CNC(=O)[C@H]2Cc3c([nH]c4ccccc34)SC[C@H](NC(=O)CNC1=O)C(=O)N[C@@H](CC(N)=O)C(=O)N1C[C@H](O)C[C@H]1C(=O)N[C@@H]([C@@H](C)[C@@H](O)CO)C(=O)N2 [Compound I(vii), Diethylala^6-Dideoxyamanitin] (cyclo(CN[Hyp][Ile(4R-OH,5-OH)][X2]G[Nva(3-Et)]G); thioether 1-5) | 170 ± 30 | 380 ± 110 |  | 
9 | C[C@H]([C@@H]1NC(=O)[C@@H]2C[C@@H](O)CN2C(=O)[C@H](CC(N)=O)NC(=O)[C@@H]2CSc3[nH]c4ccccc4c3C[C@@H](NC1=O)C(=O)NCC(=O)N[C@@H](C1CCCC1)C(=O)NCC(=O)N2)[C@@H](O)CO [Compound I(viii), Cyclopentylgly^6-Dideoxyamanitin] (cyclo(CN[Hyp][Ile(4R-OH,5-OH)][X2]G[Gly(cPent)]G); thioether 1-5) |  | 1700 ± 270 |  | cytotoxicity compared with α-amanitin, in words [2]: considerably diminished toxicity
10 | CCC(CC)[C@@H]1NC(=O)CNC(=O)[C@H]2Cc3c([nH]c4ccc(O)cc34)SC[C@H](NC(=O)CNC1=O)C(=O)N[C@@H](CC(N)=O)C(=O)N1C[C@H](O)C[C@H]1C(=O)N[C@@H]([C@@H](C)[C@@H](O)CO)C(=O)N2 [Compound I(xi), 5-OH Trp^4, Diethylala^6-Deoxyamanitin] (cyclo(CN[Hyp][Ile(4R-OH,5-OH)][X4]G[Nva(3-Et)]G); thioether 1-5) | 80 ± 10 | 1200 ± 330 |  | 
11 | CCC(CC)[C@@H]1NC(=O)CNC(=O)[C@H]2Cc3c([nH]c4ccccc34)S[C@@H](C)[C@H](NC(=O)CNC1=O)C(=O)N[C@@H](CC(N)=O)C(=O)N1C[C@H](O)C[C@H]1C(=O)N[C@@H]([C@@H](C)[C@@H](O)CO)C(=O)N2 [Compound I(xii), Diethylala^6, (2R,3S)-β-Methyl-Cys^8-Dideoxyamanitin] (cyclo(G[Nva(3-Et)]G[X1]N[Hyp][Ile(4R-OH,5-OH)][X2]); thioether 4-8) | 110 ± 30 | 290 ± 70 |  | cytotoxicity, in words [1]: increased cytotoxicity; toxicity relative to α-amanitin (times / -fold as toxic) [1]: 5; IC50 [4]: 2400 ± 300 nM; cytotoxicity, in words [4]: increased cytotoxicity; toxicity relative to α-amanitin (times / -fold as toxic) [2]: 2; IC50 [5]: 5700 ± 1100 nM
12 | CCC(CC)[C@@H]1NC(=O)CNC(=O)[C@H]2Cc3c([nH]c4ccc(O)cc34)S[C@@H](C)[C@H](NC(=O)CNC1=O)C(=O)N[C@@H](CC(N)=O)C(=O)N1C[C@H](O)C[C@H]1C(=O)N[C@@H]([C@@H](C)[C@@H](O)CO)C(=O)N2 [Compound I(xiii), 5-OH Trp^4, Diethylala^6, (2R,3S)-β-Methyl-Cys^8-Deoxyamanitin] (cyclo(G[Nva(3-Et)]G[X1]N[Hyp][Ile(4R-OH,5-OH)][X4]); thioether 4-8) | 240 ± 50 | 1170 ± 370 |  | 
13 | CC[C@H](C)[C@@H]1NC(=O)CNC(=O)[C@@H]2Cc3c([nH]c4ccccc34)[S+]([O-])C[C@H](NC(=O)CNC1=O)C(=O)N[C@@H](CC(=O)O)C(=O)N1C[C@H](O)C[C@H]1C(=O)N[C@@H]([C@@H](C)[C@@H](O)CO)C(=O)N2 (stereo partly shown) [amanin] |  |  | 0.3 | Ki [7]: 5 nM
14 | CC[C@H](C)[C@@H]1NC(=O)CNC(=O)[C@@H]2Cc3c([nH]c4ccccc34)[S+]([O-])C[C@H](NC(=O)CNC1=O)C(=O)N[C@@H](CC(N)=O)C(=O)N1C[C@H](O)C[C@H]1C(=O)N[C@@H]([C@@H](C)[C@@H](O)CO)C(=O)N2 (stereo partly shown) [amaninamide] |  |  | 20 | Ki [7]: 5 nM
15 | CC[C@H](C)[C@@H]1NC(=O)CNC(=O)[C@@H]2Cc3c([nH]c4cc(O)ccc34)[S+]([O-])C[C@H](NC(=O)CNC1=O)C(=O)N[C@@H](CC(N)=O)C(=O)N1C[C@H](O)C[C@H]1C(=O)N[C@@H]([C@@H](C)CC)C(=O)N2 (stereo partly shown) [amanullin] |  |  | >20 | Ki [7]: 10 nM
16 | CC[C@H](C)[C@@H]1NC(=O)CNC(=O)[C@@H]2Cc3c([nH]c4cc(O)ccc34)[S+]([O-])C[C@H](NC(=O)CNC1=O)C(=O)N[C@@H](CC(=O)O)C(=O)N1CCC[C@H]1C(=O)N[C@@H]([C@@H](C)CC)C(=O)N2 (stereo partly shown) [proamanullin] |  |  | >20 | 
17 | Herceptin |  |  |  | IC50 [8]: > 1000 nM
18 | amanullinic acid |  |  | >20 | 
19 | β-amanitin |  |  | 0.5 | Ki ([7]; read-out: Ki): 2.5 nM
20 | γ-amanitin |  |  | 0.2 | Ki ([7]; read-out: Ki): 5 nM
21 | ε-amanitin |  |  | 0.3 to 0.6 | 
